Entries after “also recorded” stand apart in the source; their conditions may differ.

In patent publication US7786142B2, “Heterocyclic compounds as pSTAT3/IL-6 inhibitors” (Orchid Research Laboratories, Ltd., priority 2005, dated 2010) one finds GI50, in-vivo anti-cancer activity and pSTAT3 inhibition data, which are given here for 1 compound.

In assay [1] the test system is NCIH460, HCT116, MDAMB-231/U 251. Briefly: Anti-cancer screen, mean GI50 over the cell lines. Type of assay: cell-based. In outline: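 Cells (5000/well) in DMEM with 10% FBS were treated for 48 hours with 0.01, 0.1, 1, 10 and 100 μM compound in triplicate. MTT read at 570 nm gave percent growth relative to untreated controls and pre-dose T0 wells, from which GI50, TGI and LC50 were derived.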

For another assay, the system named is NCI H460 Xenograft. Briefly: In-vivo anti-cancer activity, NCI H460 xenograft model. More on the design: species or system SCID mice. To be noted: NCI H460 Xenograft model, in words. The protocol:
Experiments were carried out using 6-8 week old female athymic SCID (Severe Combined Immune Deficient) mice. The mice were kept in laminar flow rooms (housed in Individually Ventilated Cages) at constant temperature and humidity. They had free access to food and water. Tumors were obtained form ATCC and maintained by s.c. passages of tumor fragments (about 2×2×2 mm) in healthy mice according to standard reported procedures. Each experimental group included six/eight mice bearing bilateral tumors. Tumors were implanted on day 0, and tumor growth was followed by biweekly measurements of tumor diameters with a Vernier caliper. Tumor Volume (TV) was calculated according to the following formula: TV (mm^3)=d^2 XD/2, where d and D are the shortest diameter and the longest diameter of the tumor, respectively. The drug treatment started when tumors were just measurable (Mean TV=150-200 mm^3).
All test compound/standard drugs were delivered by gavage in a volume of 10 ml/kg. Drugs were administered every day for single time to a period of 21 days. Control mice were treated with the drug solvent/vehicle. Tumor size is measured every alternate days and body weight is recorded daily.
• a) Tumor Volume Inhibition (TVI): A TVI value higher than 80% is indicative of active compounds. • b) T/C % is also another indicator for the activity. A reproducible 20% T/C is considered as therapeutically active. • c) Log Cell Kill (LCK): A LCK value greater than 1 is indicative of active compounds. • d) Relative Tumor Volume (RTV), Tumor Delay and % Tumor volume change are also considered as valuable additional parameters for assessment. • e) Toxic effects of drug treatment were assessed by Body Weight Loss % • f) Lethal toxicity was defined as any death in treated groups occurring before any control death. Mice were inspected daily for mortality and toxic clinical signs.

In the next assay the test system is pSTAT3. In words: pSTAT3 inhibition (Western blot in DU 145 / SKOV-3 cells; ELISA in HepG2 cells). Type of assay: cell-based. As to conditions: in words; FIGS. 1 and 2. The protocol:
Western blot analysis was performed as described by Kammer W et. al (J Biol Chem 271, 23634-23637, and J Biol Chem 273, 31222-31229). Briefly, 60 μg of whole cell extract was solubilized in Laemmeli buffer (50 mM Tris/HCl, pH 6.8, 2% SDS, 10% glycerol, 1 mM DTT, 1× Protease inhibitor cocktail, SET-3 (Calbiochem), 1 mM Sodium Ortho-vanadate) boiled for 5-10 minutes, and separated on a 10 or 12% acrylamide SDS gel. After protein transfer, the nitrocellulose membranes were blocked in blocking buffer for 2 hour (1×TBS, 0.1% Tween-20, 5% BSA). Membranes were incubated for 20 hours in blocking buffer containing, STAT3 P-Tyr705 (Santa Cruz Biotech), STAT3 (H-190, Santa Cruz Biotech) and Actin (C-2, Santa Cruz Biotech) antibody at 1:300 dilution. Detection was performed with HRP conjugated antimouse/antirabbit IgG (Santa Cruz Biotech) at a dilution of 1:3,000 for 1 hour. Visualization was performed using an Enhanced Chemiluminescence detection kit (Amersham). See Appended Diagrams: FIGS. 1 and 2. […]
Capture Antibody was diluted to a working concentration of 2.0 μg/mL in PBS. […] The plates were made ready after 2-3 washes with wash buffer. […] The reaction was stopped by adding 50 μl of stop solution to each well and the OD was determined using a microplate reader at 450 nm.
A general note: Immunoblotting shows a protein as a band on a membrane.

One may read the GI50 as the concentration at which growth is held to half of that of the control. Low values mean more potent growth inhibition, high ones less potent growth inhibition. In assay [1], `COc1ccc(CNC[C@H](O)COc2cccc3[nH]c4ccccc4c23)c(OC)c1` [Example 25, (2S)-1-(9H-carbazol-4-yloxy)-3-[(2,4-dimethoxybenzyl)amino]propan-2-ol] gave a GI50 of 6.4 µM. In addition, the in-vivo anti-cancer activity result with NCI H460 Xenograft is listed as “good anti-cancer activity”. For the same compound, in the assay with pSTAT3, the pSTAT3 inhibition result was “work through pSTAT3 inhibition; also recorded: operates through pSTAT3 inhibition”.
